Experimental findings from patent US20240277795A1, “INHIBITORS OF CYSTEINE PROTEASES AND METHODS OF USE THEREOF” (Pardes Biosciences, Inc., priority 2021, published 2024) are described below.

The target of one test is OC43 Mpro (Human coronavirus OC43, UniProt P0C6X6). The test is described as follows: OC43 Mpro enzymatic assay. The conditions noted are these: Table 3. In kind it is biochemical, HCoV OC43.
The target of a further test is SARS-COV2 Mpro (Severe acute respiratory syndrome coronavirus 2, UniProt P0DTD1). In words: COVID-19 (nCoV-2019, SARS-CoV2) Mpro enzymatic assay. In kind it is biochemical.
For another test, the system named is HCov OC43. In words: HCoV OC43 cytopathic effect (CPE) assay. In kind it is cell-based. The following applies: Table 4, CellTiter Glo. As to the method:
(§1) Compounds were assayed using standard methods against multiple coronaviral strains, including HCoV 229E and OC43 strains. The antiviral activity of compounds was calculated based on the protection of the virus-induced CPE at each concentration normalized by the virus control.
(§2) Reagents and instruments used in this assay include luminescent cell viability assay kit CellTiter Glo (Promega) and Microplate Reader Synergy2 (BioTek).
Reference compound used was remdesivir; detection reagent: CellTiter Glo.) The CPE were measured by CellTiter Glo following the manufacturer's manual. The antiviral activity of compounds was calculated based on the protection of the virus-induced CPE at each concentration normalized by the virus control.
(§3) The cytotoxicity of compounds was assessed under the same conditions, but without virus infection, in parallel. Cell viability was measured with CellTiter Glo. The antiviral activity and cytotoxicity of compounds were expressed as % Inhibition and % Viability, respectively, and calculated with formulas.

The next test has as its system HCoV 229E. In words: HCoV 229E cytopathic effect (CPE) assay. In kind it is cell-based. The following applies: Table 4; CellTiter Glo; read-out: 229E CPE EC50. On the procedure:
as §1, §2
Cytopathic effect (CPE) was measured by CellTiter Glo following the manufacturer's manual. The antiviral activity of compounds was calculated based on the protection of the virus-induced CPE at each concentration normalized by the virus control.
as §3

For another test, the target named is 229E Mpro (Human coronavirus 229E, UniProt P0C6X1). The test is described as follows: 229E Mpro enzymatic assay. The conditions noted are these: Table 3. In kind it is biochemical, HCoV 229E.

Read-outs that look alike come from different tables or passages of the source.

229E Mpro, sequence (P0C6X1 2966-3267): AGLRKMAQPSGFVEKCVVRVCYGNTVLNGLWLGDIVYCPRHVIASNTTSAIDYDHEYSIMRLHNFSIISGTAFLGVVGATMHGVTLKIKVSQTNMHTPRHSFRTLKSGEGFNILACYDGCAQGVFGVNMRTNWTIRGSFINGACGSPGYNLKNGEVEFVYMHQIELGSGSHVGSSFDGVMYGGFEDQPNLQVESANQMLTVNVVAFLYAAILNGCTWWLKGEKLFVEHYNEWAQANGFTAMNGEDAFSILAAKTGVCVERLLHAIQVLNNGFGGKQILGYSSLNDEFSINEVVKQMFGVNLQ
OC43 Mpro, sequence (P0C6X6 3247-3549): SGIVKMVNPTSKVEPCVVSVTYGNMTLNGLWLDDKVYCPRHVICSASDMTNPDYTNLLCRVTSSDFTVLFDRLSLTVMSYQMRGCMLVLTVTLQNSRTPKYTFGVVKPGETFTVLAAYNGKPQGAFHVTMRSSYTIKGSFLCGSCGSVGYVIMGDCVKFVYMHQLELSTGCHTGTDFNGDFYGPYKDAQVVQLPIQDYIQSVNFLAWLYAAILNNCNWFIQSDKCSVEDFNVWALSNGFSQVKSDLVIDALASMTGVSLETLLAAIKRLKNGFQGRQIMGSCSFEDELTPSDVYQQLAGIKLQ

`CC(C)(C)[C@H](NC(=O)c1cnccn1)C(=O)N1C[C@H]2[C@@H]([C@H]1C(=O)N[C@H](C#N)C[C@@H]1CCNC1=O)C2(C)C` (single isomer, unassigned) [101 Isomer 1]: the IC50 against OC43 Mpro, against SARS-COV2 Mpro and against 229E Mpro was less than 2000 nM in each case. For the same compound, the EC50 is less than 2000 nM in the test on HCov OC43 (Betacoronavirus 1, OC43) and 2000 to 10000 nM in the test with HCoV 229E.

As for `CC(C)(C)[C@H](NC(=O)c1cnccn1)C(=O)N1C[C@H]2[C@@H]([C@H]1C(=O)N[C@H](C#N)C[C@@H]1CCNC1=O)C2(C)C` (single isomer, unassigned) [101 Isomer 2], the half-maximal inhibitory concentration (IC50) against OC43 Mpro is less than 2000 nM; at SARS-COV2 Mpro (read-out: COVID-19 Mpro IC50, Table 3), less than 2000 nM; against 229E Mpro, less than 2000 nM. In addition, the figures for the concentration for a half-maximal effect (EC50) with HCov OC43 and in the test with HCoV 229E were less than 2000 nM and 2000 to 10000 nM, respectively.

`Cc1cc(C(=O)N[C@@H](Cc2cccc3ccccc23)C(=O)N[C@@H](CC2CC2)C(=O)N[C@H](C#N)C[C@@H]2CCCNC2=O)no1` [Compound 111, N—((S)-1-(((S)-1-(((S)-1-cyano-2-((S)-2-oxopiperidin-3-yl)ethyl)amino)-3-cyclopropyl-1-oxopropan-2-yl)amino)-3-(naphthalen-1-yl)-1-oxopropan-2-yl)-5-methylisoxazole-3-carboxamide]: the IC50 on OC43 Mpro is less than 2000 nM; against SARS-COV2 Mpro, 2000 to 10000 nM; against 229E Mpro, less than 2000 nM. In addition, the EC50 with HCov OC43 (Betacoronavirus 1, OC43) lay in the range of 2000 to 10000 nM; in the test on HCoV 229E, 10000 to 30000 nM.

As to `Cc1cc(C(=O)N[C@@H](Cc2ccc(F)cc2)C(=O)N[C@@H](CC(C)C)C(=O)N[C@H](C#N)C[C@@H]2CCCNC2=O)no1` [Compound 113, N—((S)-1-(((S)-1-(((S)-1-cyano-2-((S)-2-oxopiperidin-3-yl)ethyl)amino)-4-methyl-1-oxopentan-2-yl)amino)-3-(4-tluorophenyl)-1-oxopropan-2-yl)-5-methylisoxazole-3-carboxamide], the IC50 against OC43 Mpro, against SARS-COV2 Mpro and against 229E Mpro was less than 2000 nM throughout. The EC50 in the test with HCov OC43 (Betacoronavirus 1, OC43) was 2000 to 10000 nM; with HCoV 229E, 2000 to 10000 nM.

Turning to `CC(C)(C)[C@H](NC(=O)OC1CCOC1)C(=O)N1C[C@H]2[C@@H]([C@H]1C(=O)N[C@H](C#N)C[C@@H]1CC3(CC3)NC1=O)C2(C)C` (stereo partly drawn) [Compound 134, tetrahydrofuran-3-yl N-[(1S)-1-[(1R,2S,5S)-2-[[(1S)-1-cyano-2-[(6R)-5-oxo-4-azaspiro[2.4]heptan-6-yl]ethyl]carbamoyl]-6,6-dimethyl-3-azabicyclo[3.1.0]hexane-3-carbonyl]-2,2-dimethyl-propyl]carbamate], the IC50 at OC43 Mpro, against SARS-COV2 Mpro and against 229E Mpro was less than 2000 nM each time. Besides, the EC50 with HCoV 229E was less than 2000 nM.

For `CC(C)(C)C(=O)N[C@H](C(=O)N1C[C@H]2[C@@H]([C@H]1C(=O)N[C@H](C#N)C[C@@H]1CC3(CC3)NC1=O)C2(C)C)C(C)(C)C` [Compound 135, (1R,2S,5S)—N-[(1S)-1-cyano-2-[(6R)-5-oxo-4-azaspiro[2.4]heptan-6-yl]ethyl]-3-[(2S)-2-(2,2-dimethylpropanoylamino)-3,3-dimethyl-butanoyl]-6,6-dimethyl-3-azabicyclo[3.1.0]hexane-2-carboxamide], the IC50 at OC43 Mpro, against SARS-COV2 Mpro and at 229E Mpro was less than 2000 nM in each case. The EC50 in the test with HCoV 229E is less than 2000 nM.

With `CC(C)(C)[C@H](NC(=O)C1(C(F)(F)F)CC1)C(=O)N1C[C@H]2[C@@H]([C@H]1C(=O)N[C@H](C#N)C[C@@H]1CC3(CC3)NC1=O)C2(C)C` [Compound 136, (1R,2S,5S)—N-[(1S)-1-cyano-2-[(6R)-5-oxo-4-azaspiro[2.4]heptan-6-yl]ethyl]-3-[(2S)-3,3-dimethyl-2-[[1-(trifluoromethyl)cyclopropanecarbonyl]amino]butanoyl]-6,6-dimethyl-3-azabicyclo[3.1.0]hexane-2-carboxamide], the IC50 against OC43 Mpro, at SARS-COV2 Mpro and against 229E Mpro was less than 2000 nM throughout. Further, the EC50 in the test on HCoV 229E is less than 2000 nM.
